Data from patent publication US5340818A, “Methods and compositions for inhibiting tumor cell growth” (priority 1993, dated 1994).
“And” between values parts separate entries of the source, which are not always exact repeats. Equal entries are not always repeated. Where two headings read alike, the source gives them in different places.

What was measured:
[1] = system: B82 leukemia; conditions: ip, 37.5 × 1 × 7 mg/kg/day; cited from earlier work
[2] = system: X5563 myeloma; conditions: ip, 30 × 1 × 8 mg/kg/day; cited from earlier work
[3] = system: P1534 leukemia; conditions: ip, 30 × 1 × 10 mg/kg/day; cited from earlier work
[4] = system: tumors; conditions: literature, cited from earlier work
[5] = system: S91 melanoma; conditions: ip, 36 × 1 × 9 mg/kg/day; cited from earlier work
[6] = system: Shionogi carcinoma 115; conditions: ip, 36 × 1 × 9 mg/kg/day; cited from earlier work
[7] = system: C1498 leukemia; conditions: ip, 28 × 1 × 10 mg/kg/day; cited from earlier work
[8] = system: Ehrlich ascites; conditions: ip, 30 × 1 × 10 mg/kg/day; cited from earlier work
[9] = system: AKR leukemia; conditions: ip, 28 × 1 × 10 mg/kg/day; cited from earlier work
[10] = system: Sarcoma 180; conditions: ip, 30 × 1 × 10 mg/kg/day; cited from earlier work
[11] = system: DNA; conditions: cited from earlier work
[12] = system: L5178Y cells; conditions: cultured L5178Y cells; cited from earlier work
[13] = system: L5178Y leukemia; conditions: ip, 28 × 1 × 10 mg/kg/day; cited from earlier work
[14] = system: L1210 leukemia; experiment: L1210 leukemia survival time evaluation in BDF1 mice; conditions: for Day 6 AWC / MST / N/T (nine day survivors/total mice) / Survival Time, individual mice / % ILS (increase in lifespan): day 1, QDX4 ip; for % ILS (increase in lifespan): 25% or greater indicates activity
[15] = system: L1210/Dx cells; experiment: Cross-resistance studies: growth inhibition of doxorubicin-resistant L1210/Dx cells; type: cell-based
[16] = system: BREI; experiment: Survival time evaluation, BREI (ip) in BDF1 mice; type: in vivo, mouse; set-up: Survival Time, individual mice / AST: unit not given here; conditions: for AST / Day 7 AWC / N/T (15 day survivors/total mice) / Survival Time, individual mice / % ILS: day 1, QDX4; for % ILS: 25% or greater indicates activity
Experimental: 0.2 ML BREI (ip) ca. 10 6 cells IN BDF1 (FEMALE) 19-21 g
DILUENT - COCKTAIL DIL 1:10 dextrose
SCHEDULE - DAY 1, QDX4 bid (ip) DAY 1, QDX4 per os

[17] = system: L1210/0 cells; experiment: Cross-resistance studies: growth inhibition of doxorubicin-sensitive L1210/0 cells; type: cell-based; conditions: L1210/0 (doxorubicin sensitive)

SMILES: COc1cc2c(c3c1c(=O)c1ccccc1n3C)C=CC(C)(C)O2 [Compound 1, Acronycine]
- Percent activity [1]: 61%
- Percent activity [2]: 100(8) Percent
- Percent activity [3]: 0%
- antitumor activity, in words [4]: broad spectrum of antitumor activity
- antitumor activity, in words ([4]; listed as acronycine): effective against a wide range of neoplasms
- Percent activity [5]: 100(4) Percent
- Percent activity [6]: 100(7) Percent
- Percent activity [7]: 79(7) Percent
- Percent activity [8]: 0(1) Percent
- Percent activity [9]: 78(5) Percent
- Percent activity [10]: 40(9) Percent
- interaction with DNA, in words [11]: did not interact with DNA
- inhibition of incorporation of extracellular nucleosides into DNA and RNA, in words [12]: inhibit the incorporation of extracellular nuclosides into the DNA and RNA
- Percent activity [13]: 62%

SMILES: COc1c(OC)c(OC)c2c(c1O)c(=O)c1ccc(O)c(OC)c1n2C [Compound 31, Glyfoline]
- Day 6 AWC ([14]; 6.25 mg/kg): +1.8 g
- MST ([14]; 6.25 mg/kg): 7.0
- N/T (nine day survivors/total mice) ([14]; 6.25 mg/kg): 0/2
- Survival Time, individual mice ([14]; 6.25 mg/kg): 7
- % ILS (increase in lifespan) ([14]; 6.25 mg/kg): 0%
- Day 6 AWC ([14]; 12.5 mg/kg): +2.0 g
- MST ([14]; 12.5 mg/kg): 8.0
- N/T (nine day survivors/total mice) ([14]; 12.5 mg/kg): 0/2
- Survival Time, individual mice ([14]; 12.5 mg/kg): 8
- % ILS (increase in lifespan) ([14]; 12.5 mg/kg): 14%
- antileukemic activity, in words ([14]; L1210, BDF mice, low doses, ip): some activity
- (IC50) 0/(IC50) Dx ([15]; L1210/0 and L1210/Dx): 1.58
- IC50 ([15]; Mus musculus, L1210/Dx (doxorubicin resistant)): 3.31 µM
- AST ([16]; 100 mg/kg bid ip): 14.2
- Day 7 AWC ([16]; 100 mg/kg bid ip): +1.0 g
- N/T (15 day survivors/total mice) ([16]; 100 mg/kg bid ip): 0/5
- Survival Time, individual mice ([16]; 100 mg/kg bid ip): 13 and 14 and 17
- % ILS ([16]; 100 mg/kg bid ip): 18%
- AST ([16]; 500 mg/kg p.o.): > 19
- Day 7 AWC ([16]; 500 mg/kg p.o.): +0.8 g
- N/T (15 day survivors/total mice) ([16]; 500 mg/kg p.o.): 1/5
- Survival Time, individual mice ([16]; 500 mg/kg p.o.): 13 and 14 and 15 and > 40
- % ILS ([16]; 500 mg/kg p.o.): > 62%
- tumorfree survival (one mouse) ([16]; oral route): > 40 days
- IC50 [17]: 2.09 µM
